Columns and labels:
Type in all cases: in vivo
soybean = experiment: Test Example 5: effect on crop by foliage application, plastic box (symbol d); details: 320 g/ha, 3 weeks after application
How it was run: (§1)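 Crop seed is sown alongside grass and broadleaf weed species in spots in sterilized diluvial soil, then covered to a depth of about 1.5 cm. Plants grow in a greenhouse kept at 25° C. to 30° C.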

Cyperus difformis = experiment: Test Example 3: herbicidal effect by foliage application, Wagner pot (symbol E); details: application herbicide amount 320 g/ha
How it was run: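 Alluvial soil was flooded to a depth of 0.1–0.5 cm, seeded with the weeds and rice, and kept in a greenhouse at 25–30 °C. After 14 days of growth, the foliage received a small-sprayer application of emulsion diluted to the intended rate; injury was rated at 3 weeks.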

[1] = tested on: Echinochloa crus-galli var. crus-galli; experiment: Test Example 4: herbicidal effect by soil treatment (symbol H); details: 320 g/ha
How it was run: (§2)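 Seeds were sown in sterilized diluvial soil, covered with about 1.5 cm of soil, and the soil surface was sprayed with a water-diluted emulsion of the compound at a predetermined rate. Plants grew in a greenhouse at 25° C. to 30° C.; effects were scored visually 3 weeks after application.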

corn [2] = experiment: Test Example 4: effect on crop by soil treatment (symbol c); details: 320 g/ha
How it was run: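 Sterilized diluvial soil, spot sowing, ~1.5 cm soil cover; greenhouse 25–30° C.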

transplanted rice plant = experiment: Test Example 1: effect on crop, application before weed generation in submerged conditions (symbol a); details: application herbicide amount 320 g/ha
How it was run: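 Rice at 2.5 leaf stage transplanted into submerged soil (4 cm depth) sown with three weed species; herbicide applied before weed emergence.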

beet = experiment: Test Example 5: effect on crop by foliage application, plastic box (symbol f); details: 320 g/ha, 3 weeks after application
How it was run: as §1

Scirpus juncoides = experiment: Test Example 2: herbicidal activity, application during weed generation in submerged conditions (symbol B); details: Table 23; application herbicide amount 320 g/ha; grade 0-5 by criteria of Test Example 1
How it was run: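 Weeds emerging under flooded conditions were treated with compound formulated as an emulsion and diluted with water to the intended herbicide amount, poured onto the surface of 4 cm standing water. Seeds had been co-sown in alluvial soil; plants grew at 25° C. to 30° C. and were assessed after 3 weeks.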

Alopecurus myosuroides = experiment: Test Example 5: herbicidal effect by foliage application, plastic box (symbol J); details: 320 g/ha, 3 weeks after application
How it was run: (§3)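 Post-emergence spray; diluvial soil (sterilized), ~1.5 cm seed cover; greenhouse 25–30° C; 14-day-old plants; water-diluted emulsion at predetermined dose; visual score at 3 wk post-treatment.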

corn [3] = experiment: Test Example 5: effect on crop by foliage application, plastic box (symbol c); details: 320 g/ha, 3 weeks after application
How it was run: as §1

Stellaria media = experiment: Test Example 4: herbicidal effect by soil treatment (symbol P); details: 320 g/ha
How it was run: as §2

[4] = tested on: Echinochloa crus-galli var. crus-galli; experiment: Test Example 5: herbicidal effect by foliage application, plastic box (symbol H); details: 320 g/ha, 3 weeks after application
How it was run: as §3

Abutilon theophrasti = experiment: Test Example 4: herbicidal effect by soil treatment (symbol M); details: 320 g/ha
How it was run: as §2

rice = experiment: Test Example 4: effect on crop by soil treatment (symbol b); details: 320 g/ha
How it was run: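 Diluvial soil (sterilized) in boxes; seeds placed spot-wise alongside weed species; ~1.5 cm covering soil. Greenhouse, 25–30° C.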

Row | Structure (SMILES) | d: soybean, effect on crop (criteria 0-5) (soybean) | herbicidal effect on E, grade 0-5 (Cyperus difformis) | H: Echinochloa crus-galli var. crus-galli, herbicidal effect grade [1] | c: corn, effect grade on crop (corn [2]) | Effect grade on crop, a: transplanted rice plant (transplanted rice plant) | f: beet, effect on crop (criteria 0-5) (beet) | Herbicidal effect grade, B: Scirpus juncoides (Scirpus juncoides) | J: Alopecurus myosuroides, herbicidal effect (criteria 0-5) (Alopecurus myosuroides) | c: corn, effect on crop (criteria 0-5) (corn [3]) | P: Stellaria media, herbicidal effect grade (Stellaria media) | H: Echinochloa crus-galli var. crus-galli, herbicidal effect (criteria 0-5) [4] | M: Abutilon theophrasti, herbicidal effect grade (Abutilon theophrasti) | b: directly sowed rice plant, effect grade on crop (rice) | d: soybean, effect on crop grade (soybean) | f: beet, effect on crop grade (beet) | J: Alopecurus myosuroides, herbicidal effect grade (Alopecurus myosuroides) | c: corn, effect on crop grade (corn [3]) | H: Echinochloa crus-galli var. crus-galli, herbicidal effect grade [4]
1 | CON=C(C)CC1CC(OC(=O)c2ccccc2OC(F)(F)F)=C(c2c(C)cc(C)cc2C)C1=O (stereo not drawn) [1-155] | 3 (Herbicidal ratio of 40% or higher and lower than 70%) | 5 (Herbicidal ratio of 90% or more (almost completely withered)) | 5 (Herbicidal ratio of 90% or more (almost completely withered)) | 3 (Herbicidal ratio of 40% or higher and lower than 70%) | 5 (Herbicidal ratio of 90% or more (almost completely withered)) | 2 (Herbicidal ratio of 20% or higher and lower than 40%) | 5 (Herbicidal ratio of 90% or more (almost completely withered)) | 5 (Herbicidal ratio of 90% or more (almost completely withered)) | 4 (Herbicidal ratio of 70% or higher and lower than 90%) | 0 (Herbicidal ratio of 5% or lower (almost no effect)) | 5 (Herbicidal ratio of 90% or more (almost completely withered)) | 5 (Herbicidal ratio of 90% or more (almost completely withered)) | 5 (Herbicidal ratio of 90% or more (almost completely withered)) | – | – | – | – | –
2 | CON=C(C)CC1CC(OC(=O)N2CCCC2)=C(c2c(C)cc(C)cc2C)C1=O (stereo not drawn) [1-150] | 0 (Herbicidal ratio of 5% or lower (almost no effect)) | – | 0 (Herbicidal ratio of 5% or lower (almost no effect)) | 0 (Herbicidal ratio of 5% or lower (almost no effect)) | 5 (Herbicidal ratio of 90% or more (almost completely withered)) | 0 (Herbicidal ratio of 5% or lower (almost no effect)) | 3 (Herbicidal ratio of 40% or higher and lower than 70%) | 5 (Herbicidal ratio of 90% or more (almost completely withered)) | 4 (Herbicidal ratio of 70% or higher and lower than 90%) | 0 (Herbicidal ratio of 5% or lower (almost no effect)) | 5 (Herbicidal ratio of 90% or more (almost completely withered)) | – | 0 (Herbicidal ratio of 5% or lower (almost no effect)) | – | – | – | – | –
3 | CON=C(C)CC1CC(OC(=O)C(C)Oc2ccc(Oc3ccc(Cl)cc3Cl)cc2)=C(c2c(C)cc(C)cc2C)C1=O (stereo not drawn) [1-163] | – | 5 (Herbicidal ratio of 90% or more (almost completely withered)) | 5 (Herbicidal ratio of 90% or more (almost completely withered)) | 1 (Herbicidal ratio of 5% or higher and lower than 20%) | 5 (Herbicidal ratio of 90% or more (almost completely withered)) | – | 4 (Herbicidal ratio of 70% or higher and lower than 90%) | – | – | 0 (Herbicidal ratio of 5% or lower (almost no effect)) | – | – | 5 (Herbicidal ratio of 90% or more (almost completely withered)) | 2 (Herbicidal ratio of 20% or higher and lower than 40%) | 4 (Herbicidal ratio of 70% or higher and lower than 90%) | 5 (Herbicidal ratio of 90% or more (almost completely withered)) | 4 (Herbicidal ratio of 70% or higher and lower than 90%) | 5 (Herbicidal ratio of 90% or more (almost completely withered))
4 | CON=C(C)CC1CC(OS(=O)(=O)CCCCl)=C(c2c(C)cc(C)cc2C)C1=O (stereo not drawn) [1-142] | 3 (Herbicidal ratio of 40% or higher and lower than 70%) | – | 5 (Herbicidal ratio of 90% or more (almost completely withered)) | 0 (Herbicidal ratio of 5% or lower (almost no effect)) | 5 (Herbicidal ratio of 90% or more (almost completely withered)) | 3 (Herbicidal ratio of 40% or higher and lower than 70%) | 4 (Herbicidal ratio of 70% or higher and lower than 90%) | 5 (Herbicidal ratio of 90% or more (almost completely withered)) | 5 (Herbicidal ratio of 90% or more (almost completely withered)) | 0 (Herbicidal ratio of 5% or lower (almost no effect)) | 5 (Herbicidal ratio of 90% or more (almost completely withered)) | 0 (Herbicidal ratio of 5% or lower (almost no effect)) | 5 (Herbicidal ratio of 90% or more (almost completely withered)) | – | – | – | – | –
5 | CON=C(C)CC1CC(OS(=O)(=O)CC[Si](C)(C)C)=C(c2c(C)cc(C)cc2C)C1=O (stereo not drawn) [1-144] | 3 (Herbicidal ratio of 40% or higher and lower than 70%) | – | 5 (Herbicidal ratio of 90% or more (almost completely withered)) | 3 (Herbicidal ratio of 40% or higher and lower than 70%) | 5 (Herbicidal ratio of 90% or more (almost completely withered)) | 2 (Herbicidal ratio of 20% or higher and lower than 40%) | 4 (Herbicidal ratio of 70% or higher and lower than 90%) | 5 (Herbicidal ratio of 90% or more (almost completely withered)) | 5 (Herbicidal ratio of 90% or more (almost completely withered)) | 0 (Herbicidal ratio of 5% or lower (almost no effect)) | 5 (Herbicidal ratio of 90% or more (almost completely withered)) | 0 (Herbicidal ratio of 5% or lower (almost no effect)) | 5 (Herbicidal ratio of 90% or more (almost completely withered)) | – | – | – | – | –
6 | CON=C(C)CC1CC(OC(=O)N2CCCCC2)=C(c2c(C)cc(C)cc2C)C1=O (stereo not drawn) [1-151] | 2 (Herbicidal ratio of 20% or higher and lower than 40%) | – | 0 (Herbicidal ratio of 5% or lower (almost no effect)) | 0 (Herbicidal ratio of 5% or lower (almost no effect)) | 4 (Herbicidal ratio of 70% or higher and lower than 90%) | 2 (Herbicidal ratio of 20% or higher and lower than 40%) | 1 (Herbicidal ratio of 5% or higher and lower than 20%) | 5 (Herbicidal ratio of 90% or more (almost completely withered)) | 4 (Herbicidal ratio of 70% or higher and lower than 90%) | 0 (Herbicidal ratio of 5% or lower (almost no effect)) | 5 (Herbicidal ratio of 90% or more (almost completely withered)) | 0 (Herbicidal ratio of 5% or lower (almost no effect)) | 1 (Herbicidal ratio of 5% or higher and lower than 20%) | – | – | – | – | –

From patent US11000033B2, “Ketone or oxime compound, and herbicide” (NISSAN CHEMICAL CORPORATION, priority 2014, dated 2021)
